Assays:
[1] = tested on: CD8+ T cells from spleens of BL/6J mice; test: T cell proliferation assay (CELLTRACE Violet) of MSCV-transduced CD8+ T cells in metabolic conditions; format: cell-based, mouse; details: 48 hr
Protocol: Spleens from BL/6J mice (Jackson Laboratory #000664; https://www.jax.org/strain/000664) were harvested, minced, resuspended in fluorescence-activated cell sorting (FACS) buffer (phosphate buffered saline (PBS)+2% fetal bovine serum (FBS)+1 mM ethylene diamine tetra-acetic acid (EDTA) (THERMOFISHER SCIENTIFIC™, #15575020)), and strained through a 40-micron nylon mesh filter (Millipore Sigma, CLS431750-50EA). The cellular suspension was then centrifuged at 600× g for 10 minutes before isolating CD8+ T cells using standard protocol from an immunomagnetic separation kit (EASYSEP™ Mouse CD8+ T Cell Isolation Kit, STEMCELL™ Technologies, #19853).
For activation, 5×10^6 stained CD8+ T cells were resuspended in 1 mL of complete T cell medium (RPMI 1640+10% fetal bovine serum (FBS)+1 mM Na Pyruvate+10 mM 4-(2-hydroxyethyl)-1-piperazineethanesulfonic acid (HEPES)+1% penicillin/streptomycin (pen/strep)+0.1% beta-mercaptoethanol) supplemented with 2 ug/mL anti-CD28 clone 37.51 (BIOXCELL™, #BE0015-1) and plated into one well of a 12 well plate coated with 10 micrograms/mL (μg/mL) of anti-CD3e clone 2C11 (BIOXCELL™, #BE0001-1). 24 hours later, plates were lightly spun down at 100× g for 2 minutes, before removing 800 ul of supernatant. 1 mL of T cell media containing concentrated virus was then overlaid, before centrifugation at 800×g for 1 hour at 32C (32° C.). […]

[2] = tested on: B16 melanoma cell line constitutively expressing GFP; test: B16 melanoma proliferation/survival assay in HG, LG, LG+C (GFP positivity as proxy for viability); format: cell-based; details: starvation (low glucose, LG) conditions + cellobiose (+C)
From the text: The protocol for proliferation of the B16 melanoma tumor cell line (FIG. 19) constitutively expressing GFP is identical to the other proliferation assays described above, minus the prior transfection with plasmids.
In order to study the effects of cellobiose on tumors, the high glucose (HG), low glucose (LG), and low glucose+cellobiose (LG+C) in vitro studies of FIGS. 18A-18B were repeated using a B16 melanoma cell line constitutively expressing GFP.

[3] = after intravenous infusion; cited from earlier work

## O=C[C@H](O)[C@@H](O)[C@H](O[C@@H]1O[C@H](CO)[C@@H](O)[C@H](O)[C@H]1O)[C@H](O)CO [cellobiose]
[1]; low glucose + cellobiose (LG+C) vs low glucose
  T-cell proliferation (CELLTRACE VIOLET) of mCh+ GFP+ cells co-transduced with CDT-1 and GH1-1: rescued T-cell proliferation
[1]; low glucose environment when cellobiose was added
  wild-type (WT) T-cell proliferation: minor increase
[2]
  B16 melanoma tumor survival (GFP positivity as proxy for cell viability): did not promote B16 melanoma tumor survival
[3]
  excretion in the urine: vast majority of cellobiose is excreted in the urine

— patent publication US20240165154A1, “METHODS AND AGENTS FOR MODULATING ADOPTIVE IMMUNOTHERAPY” (The Regents of the University of California, priority 2021, published 2024)
